Assay results published in ChEMBL document CHEMBL1151449, “In vitro activity of DC-159a, a new broad-spectrum fluoroquinolone, compared with that of other agents against drug-susceptible and -resistant pneumococci” (2008).
In brackets after ≈: the same amount, converted by molar mass.

What was measured:
Type in all cases: functional
Streptococcus pneumoniae [1] = assay: (§1) Antibacterial activity against penicillin-, macrolide- and quinolone-susceptible Streptococcus pneumoniae HMC 63 harboring S81F mutation in quinolone-resistant determining regions of GyrA gene, D83Y mutation in QRDR of ParC gene and I460V mutation in QRDR of ParE gene after 34 passages with gemifloxacin measured after 10 daily antibiotic-free subculturing by multi-step resistance selection technique
Streptococcus pneumoniae [2] = assay: (§2) Antibacterial activity against macrolide-, quinolone-susceptible and penicillin-intermediate Streptococcus pneumoniae HMC 99 harboring S81Y and S79Y mutation in quinolone-resistant determining regions of GyrA and ParC genes respectively after 41 passages with moxifloxacin measured after 10 daily antibiotic-free subculturing by multi-step resistance selection technique
Streptococcus pneumoniae [3] = assay: Antibacterial activity against penicillin-resistant and quinolone-susceptible Streptococcus pneumoniae HMC 228 expressing ermB by broth microdilution method
Streptococcus pneumoniae [4] = assay: Antibacterial activity against penicillin-intermediate Streptococcus pneumoniae […] by agar dilution method
Streptococcus pneumoniae [5] = assay: Antibacterial activity against penicillin-, quinolone-resistant and macrolide-susceptible Streptococcus pneumoniae HMC 1058 harboring S79F, K137N mutation in quinolone-resistant determining regions of ParC gene and 460V mutation in QRDR of ParE gene by broth microdilution method
Streptococcus pneumoniae [6] = assay: Antibacterial activity against penicillin- and quinolone-susceptible Streptococcus pneumoniae HMC 5055 expressing mefA after 50 passages by broth microdilution method
Streptococcus pneumoniae [7] = assay: Antibacterial activity against Streptococcus pneumoniae HMC 1072 harboring S81F mutation in quinolone-resistant determining regions of GyrA gene, S79Y mutation in QRDR of ParC gene and I460V mutation in QRDR of ParE gene by agar dilution method
Streptococcus pneumoniae [8] = assay: Antibacterial activity against Streptococcus pneumoniae HMC 2536 harboring S81Y mutation in quinolone-resistant determining regions of GyrA gene, S79F, K137N mutation in QRDR of ParC gene and I460V mutation in QRDR of ParE gene by agar dilution method
Streptococcus pneumoniae [9] = assay: Antibacterial activity against penicillin-resistant Streptococcus pneumoniae […] by agar dilution method
Streptococcus pneumoniae [10] = assay: Antibacterial activity against quinolone-susceptible and penicillin-intermediate Streptococcus pneumoniae HMC 5048 expressing mefA after 50 passages by broth microdilution method
Streptococcus pneumoniae [11] = assay: Antibacterial activity against penicillin-, quinolone-resistant Streptococcus pneumoniae HMC 1541 harboring mutation in L4 protein by broth microdilution method
Streptococcus pneumoniae [12] = assay: Antibacterial activity against Streptococcus pneumoniae HMC 1062 harboring S81F mutation in quinolone-resistant determining regions of GyrA gene, S79F mutation in QRDR of ParC gene and I460V mutation in QRDR of ParE gene by agar dilution method
Streptococcus pneumoniae [13] = assay: as §1, with “penicillin-resistant” for “penicillin-, macrolide-”, “3583 expressing mefA and” for “63”, “D83N” for “D83Y”, “44” for “34”, “levofloxacin” for “gemifloxacin”
Streptococcus pneumoniae [14] = assay: Antibacterial activity against penicillin-, macrolide- and quinolone-susceptible Streptococcus pneumoniae HMC 63 after 50 passages by broth microdilution method
Streptococcus pneumoniae [15] = assay: as §1, with “penicillin-resistant” for “penicillin-, macrolide-”, “3583 expressing mefA and” for “63”, “D83N” for “D83Y”, “49” for “34”, “DC-159a” for “gemifloxacin”
Streptococcus pneumoniae [16] = assay: Antibacterial activity against Streptococcus pneumoniae HMC 1149 harboring S81F and S79Y mutation in quinolone-resistant determining regions of GyrA and ParC genes respectively showing efflux to ciprofloxacin, gemifloxacin by agar dilution method
Streptococcus pneumoniae [17] = assay: Antibacterial activity against quinolone-susceptible and penicillin-intermediate Streptococcus pneumoniae HMC 5048 expressing mefA by broth microdilution method
Streptococcus pneumoniae [18] = assay: Antibacterial activity against penicillin-, macrolide-susceptible and quinolone-resistant Streptococcus pneumoniae HMC 1074 harboring S81F mutation in quinolone-resistant determining regions of GyrA gene, S79F mutation in QRDR of ParC gene and I460V mutation in QRDR of ParE gene after 50 passages by broth microdilution method
Streptococcus pneumoniae [19] = assay: Antibacterial activity against Streptococcus pneumoniae HMC 1541 harboring S81Y mutation in quinolone-resistant determining regions of GyrA gene, S79F, K137N mutation in QRDR of ParC gene and I460V mutation in QRDR of ParE gene by agar dilution method
Streptococcus pneumoniae [20] = assay: Antibacterial activity against penicillin- and quinolone-susceptible Streptococcus pneumoniae HMC 5055 expressing mefA by broth microdilution method
Streptococcus pneumoniae [21] = assay: Antibacterial activity against quinolone-resistant Streptococcus pneumoniae […] by agar dilution method
Streptococcus pneumoniae [22] = assay: as §2, with “100” for “99”, “42” for “41”, “levofloxacin” for “moxifloxacin”
Streptococcus pneumoniae [23] = assay: Antibacterial activity against quinolone-susceptible and penicillin-intermediate Streptococcus pneumoniae HMC 441 expressing ermB by broth microdilution method
Streptococcus pneumoniae [24] = assay: Antibacterial activity against Streptococcus pneumoniae HMC 1146 harboring S81F mutation in quinolone-resistant determining regions of GyrA gene, and D435N mutation in QRDR of ParE gene by agar dilution method
Streptococcus pneumoniae [25] = assay: Antibacterial activity against Streptococcus pneumoniae HMC 1074 harboring S81F mutation in quinolone-resistant determining regions of GyrA gene, S79F mutation in QRDR of ParC gene and I460V mutation in QRDR of ParE gene by agar dilution method
Streptococcus pneumoniae [26] = assay: Antibacterial activity against Streptococcus pneumoniae HMC 1058 harboring S79F, K137N mutation in quinolone-resistant determining regions of ParC gene and 460V mutation in QRDR of ParE gene by agar dilution method
Streptococcus pneumoniae [27] = assay: Antibacterial activity against Streptococcus pneumoniae HMC 1055 harboring S81F mutation in quinolone-resistant determining regions of GyrA gene, S79F, K137N mutation in QRDR of ParC gene and I460V mutation in QRDR of ParE gene by agar dilution method
Streptococcus pneumoniae [28] = assay: Antibacterial activity against Streptococcus pneumoniae HMC 2538 harboring S81Y mutation in quinolone-resistant determining regions of GyrA gene, S79F, K137N mutation in QRDR of ParC gene and I460V mutation in QRDR of ParE gene showing efflux to ciprofloxacin, levofloxacin, gatifloxacin by agar dilution method
Streptococcus pneumoniae [29] = assay: Antibacterial activity against Streptococcus pneumoniae HMC 1070 harboring S81F mutation in quinolone-resistant determining regions of GyrA gene, D83N mutation in QRDR of ParC gene and I460V mutation in QRDR of ParE gene by agar dilution method
Streptococcus pneumoniae [30] = assay: Antibacterial activity against macrolide-, quinolone-susceptible and penicillin-intermediate Streptococcus pneumoniae HMC 99 by broth microdilution method
Streptococcus pneumoniae [31] = assay: Antibacterial activity against quinolone-susceptible Streptococcus pneumoniae ATCC 49619 by agar dilution method
Streptococcus pneumoniae [32] = assay: Antibacterial activity against Streptococcus pneumoniae HMC 1068 harboring E85K mutation in quinolone-resistant determining regions of GyrA gene, S79Y, K137N mutation in QRDR of ParC gene and I460V mutation in QRDR of ParE gene showing efflux to ciprofloxacin, levofloxacin by agar dilution method

SMILES | MIC (Streptococcus pneumoniae [1]) [µg/mL] | MIC (Streptococcus pneumoniae [2]) [µg/mL] | MIC (Streptococcus pneumoniae [3]) [µg/mL] | MIC50 (Streptococcus pneumoniae [4]) [µg/mL] | MIC90 (Streptococcus pneumoniae [4]) [µg/mL] | MIC (Streptococcus pneumoniae [5]) [µg/mL] | MIC (Streptococcus pneumoniae [6]) [µg/mL] | MIC (Streptococcus pneumoniae [7]) [µg/mL] | MIC (Streptococcus pneumoniae [8]) [µg/mL] | MIC50 (Streptococcus pneumoniae [9]) [µg/mL] | MIC90 (Streptococcus pneumoniae [9]) [µg/mL] | MIC (Streptococcus pneumoniae [10]) [µg/mL] | MIC (Streptococcus pneumoniae [11]) [µg/mL] | MIC (Streptococcus pneumoniae [12]) [µg/mL] | MIC (Streptococcus pneumoniae [13]) [µg/mL] | MIC (Streptococcus pneumoniae [14]) [µg/mL] | MIC (Streptococcus pneumoniae [15]) [µg/mL] | MIC (Streptococcus pneumoniae [16]) [µg/mL] | MIC (Streptococcus pneumoniae [17]) [µg/mL] | MIC (Streptococcus pneumoniae [18]) [µg/mL] | other results
COc1c(N2CCNC(C)C2)c(F)cc2c(=O)c(C(=O)O)cn(C3CC3)c12 (configuration not stated) [GATIFLOXACIN] | 8 (≈ 21.3 µM) | 16 (≈ 42.6 µM) | 0.5 (≈ 1.33 µM) | 0.5 (≈ 1.33 µM) | 0.5 (≈ 1.33 µM) | 4 (≈ 10.7 µM) | 0.5 (≈ 1.33 µM) | 8 (≈ 21.3 µM) | 16 (≈ 42.6 µM) | 0.5 (≈ 1.33 µM) | 4 (≈ 10.7 µM) | 0.5 (≈ 1.33 µM) | 4 (≈ 10.7 µM) | 16 (≈ 42.6 µM) | 4 (≈ 10.7 µM) | 1 (≈ 2.66 µM) | 4 (≈ 10.7 µM) | 1 (≈ 2.66 µM) | 0.25 (≈ 0.666 µM) | 8 (≈ 21.3 µM) | MIC (Streptococcus pneumoniae [19]): 4 µg/mL (≈ 10.7 µM); MIC (Streptococcus pneumoniae [20]): 0.25 µg/mL (≈ 0.666 µM); MIC50 (Streptococcus pneumoniae [21]): 8 µg/mL (≈ 21.3 µM); MIC90 (Streptococcus pneumoniae [21]): 8 µg/mL (≈ 21.3 µM); MIC (Streptococcus pneumoniae [22]): 8 µg/mL (≈ 21.3 µM); MIC (Streptococcus pneumoniae [23]): 0.25 µg/mL (≈ 0.666 µM); MIC (Streptococcus pneumoniae [24]): 4 µg/mL (≈ 10.7 µM); MIC (Streptococcus pneumoniae [25]): 4 µg/mL (≈ 10.7 µM); MIC (Streptococcus pneumoniae [26]): 2 µg/mL (≈ 5.33 µM); MIC (Streptococcus pneumoniae [27]): 8 µg/mL (≈ 21.3 µM); MIC (Streptococcus pneumoniae [28]): 8 µg/mL (≈ 21.3 µM); MIC (Streptococcus pneumoniae [29]): 4 µg/mL (≈ 10.7 µM); MIC (Streptococcus pneumoniae [30]): 0.12 µg/mL (≈ 0.32 µM); MIC50 (Streptococcus pneumoniae [31]): 0.5 µg/mL (≈ 1.33 µM); MIC90 (Streptococcus pneumoniae [31]): 0.5 µg/mL (≈ 1.33 µM); MIC (Streptococcus pneumoniae [32]): 8 µg/mL (≈ 21.3 µM)
COc1c(N2CC3(CC3)[C@](C)(N)C2)c(F)cc2c(=O)c(C(=O)O)cn([C@@H]3C[C@@H]3F)c12.O | 1 | 1 | 0.12 | 0.12 | 0.12 | 0.5 | 0.125 | 1 | 1 | 0.12 | 0.5 | 0.125 | 1 | 1 | 1 | 0.125 | 1 | 0.25 | 0.12 | 1 | MIC (Streptococcus pneumoniae [19]): 0.5 µg/mL; MIC (Streptococcus pneumoniae [20]): 0.12 µg/mL; MIC50 (Streptococcus pneumoniae [21]): 1 µg/mL; MIC90 (Streptococcus pneumoniae [21]): 1 µg/mL; MIC (Streptococcus pneumoniae [22]): 1 µg/mL; MIC (Streptococcus pneumoniae [23]): 0.12 µg/mL; MIC (Streptococcus pneumoniae [24]): 1 µg/mL; MIC (Streptococcus pneumoniae [25]): 0.5 µg/mL; MIC (Streptococcus pneumoniae [26]): 0.5 µg/mL; MIC (Streptococcus pneumoniae [27]): 1 µg/mL; MIC (Streptococcus pneumoniae [28]): 1 µg/mL; MIC (Streptococcus pneumoniae [29]): 1 µg/mL; MIC (Streptococcus pneumoniae [30]): 0.12 µg/mL; MIC50 (Streptococcus pneumoniae [31]): 0.12 µg/mL; MIC90 (Streptococcus pneumoniae [31]): 0.12 µg/mL; MIC (Streptococcus pneumoniae [32]): 1 µg/mL
